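Five compound concentrations were applied to cells in 96-well plates for 48 hours; endpoints were derived by simple linear interpolation of the resulting dose-response curve. GI50 is the concentration that inhibits growth by half. TGI marks complete inhibition of growth.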
Key:
Test in all cases: inhibition of tumour cell growth, NCI panel, 48 h
[1] = system: NCI/ADR-RES ovarian
[2] = system: SK-MEL-2 melanoma
[3] = system: SN12C renal
[4] = system: EKVX NSCLC
[5] = system: UACC-62 melanoma
[6] = system: SK-MEL-28 melanoma
[7] = system: SK-MEL-5 melanoma
[8] = system: NCI-H522 lung
[9] = system: SW-620 colon
[10] = system: MALME-3M melanoma
[11] = system: SF-295 CNS
[12] = system: IGROV1 ovarian
[13] = system: LOX IMVI melanoma
[14] = system: OVCAR-8 ovarian
[15] = system: OVCAR-3 ovarian
[16] = system: MCF7 breast
[17] = system: HT29 colon
[18] = system: CCRF-CEM leukemia
[19] = system: NCI-H23 lung
[20] = system: K-562 leukemia
[21] = system: HS 578T breast
[22] = system: RPMI-8226 leukemia
[23] = system: KM12 colon
[24] = system: CAKI-1 renal
[25] = system: HCT-15 colon
[26] = system: SR leukemia
[27] = system: SF-268 CNS
[28] = system: MOLT-4 leukemia
[29] = system: HL-60(TB) leukemia
[30] = system: PC-3 prostate
[31] = system: UACC-257 melanoma
[32] = system: HCC-2998 colon
[33] = system: SNB-19 CNS
[34] = system: NCI-H226 lung
[35] = system: OVCAR-5 ovarian
[36] = system: T-47D breast
[37] = system: A549 NSCLC
[38] = system: UO-31 renal
[39] = system: MDA-MB-435
[40] = system: HOP-62 NSCLC
[41] = system: COLO 205 colon
[42] = system: MDA-MB-231 breast
[43] = system: HCT-116 colon
[44] = system: SK-OV-3 ovarian
[45] = system: SF-539 CNS
[46] = system: TK-10 renal
[47] = system: NCI-H460 lung
[48] = system: SNB-75 CNS
[49] = system: HOP-92 NSCLC
[50] = system: 786-0 renal
[51] = system: U251 CNS
[52] = system: BT-549 breast
[53] = system: M14 melanoma
[54] = system: DU-145 prostate
[55] = system: RXF 393 renal
[56] = system: ACHN renal
[57] = system: A498 renal
[58] = system: OVCAR-4 ovarian

CN1CCN(c2ccc3nc(-c4c5cccccc-5[nH]c4=O)[nH]c3c2)CC1
GI50 [1]: 23.4 µM
TGI [1]: 97.4 µM
GI50 [2]: 27.1 µM
TGI [2]: > 66.9 µM
GI50 [3]: 5.37 µM
TGI [3]: > 80.9 µM
GI50 [4]: 29.4 µM
TGI [4]: > 100 µM
GI50 [5]: 19.6 µM
TGI [5]: 43.4 µM
GI50 [6]: 15.6 µM
TGI [6]: 30.3 µM
GI50 [7]: 14.8 µM
TGI [7]: 28.3 µM
GI50 [8]: 15.6 µM
TGI [8]: > 46.8 µM
GI50 [9]: 5.79 µM
TGI [9]: 43.7 µM
GI50 [10]: 14.6 µM
TGI [10]: 31 µM
GI50 [11]: 20.3 µM
TGI [11]: > 76.5 µM
GI50 [12]: 5.27 µM
TGI [12]: 45.5 µM
GI50 [13]: 7.78 µM
TGI [13]: 22.4 µM
GI50 [14]: 11.3 µM
TGI [14]: > 72.2 µM
GI50 [15]: 17.2 µM
TGI [15]: 58.2 µM
GI50 [16]: 6.27 µM
TGI [16]: 32.1 µM
GI50 [17]: 8 µM
TGI [17]: 23.1 µM
GI50 [18]: 10.1 µM
TGI [18]: > 84.1 µM
GI50 [19]: 13.9 µM
TGI [19]: 51.7 µM
GI50 [20]: 10.6 µM
TGI [20]: 53.4 µM
GI50 [21]: 13 µM
TGI [21]: > 100 µM
GI50 [22]: 16.8 µM
TGI [22]: 62.4 µM
GI50 [23]: 0.266 µM
TGI [23]: 13.9 µM
GI50 [24]: 7.29 µM
TGI [24]: > 62.1 µM
GI50 [25]: 11.5 µM
TGI [25]: 55.9 µM
GI50 [26]: 12.7 µM
TGI [26]: 49.5 µM
GI50 [27]: 11.9 µM
TGI [27]: 40.3 µM
GI50 [28]: 3.49 µM
TGI [28]: 22.3 µM
GI50 [29]: 13.7 µM
TGI [29]: 33.5 µM
GI50 [30]: 17.4 µM
TGI [30]: > 100 µM
GI50 [31]: 17.6 µM
TGI [31]: 35.3 µM
GI50 [32]: 13.7 µM
TGI [32]: 37 µM
GI50 [33]: 12.3 µM
TGI [33]: 71.6 µM
GI50 [34]: 7.18 µM
TGI [34]: 55.9 µM
GI50 [35]: 15.9 µM
TGI [35]: 52.1 µM
GI50 [36]: 30.8 µM
TGI [36]: > 91.7 µM
GI50 [37]: 7.58 µM
TGI [37]: > 59.3 µM
GI50 [38]: 3.53 µM
TGI [38]: 52.9 µM
GI50 [39]: 14.3 µM
TGI [39]: 29.7 µM
GI50 [40]: 10.5 µM
TGI [40]: 54.7 µM
GI50 [41]: 8.39 µM
TGI [41]: 22.2 µM
GI50 [42]: 11.8 µM
TGI [42]: 36.7 µM
GI50 [43]: 9.55 µM
TGI [43]: 25.5 µM
GI50 [44]: 9.43 µM
TGI [44]: 83.1 µM
GI50 [45]: 10.1 µM
TGI [45]: 22.8 µM
GI50 [46]: 27.9 µM
TGI [46]: > 74.5 µM
GI50 [47]: 5.45 µM
TGI [47]: 27.2 µM
GI50 [48]: 7.64 µM
TGI [48]: > 45.2 µM
GI50 [49]: 18 µM
TGI [49]: > 100 µM
GI50 [50]: 11.2 µM
TGI [50]: 46.6 µM
GI50 [51]: 11.6 µM
TGI [51]: 41 µM
GI50 [52]: 13.4 µM
TGI [52]: 66 µM
GI50 [53]: 13.3 µM
TGI [53]: 27.8 µM
GI50 [54]: 9.67 µM
TGI [54]: 35.8 µM
GI50 [55]: 3.39 µM
TGI [55]: 15.8 µM
GI50 [56]: 6.09 µM
TGI [56]: 60.9 µM
GI50 [57]: 4.77 µM
TGI [57]: 21.4 µM
GI50 [58]: 13.9 µM
TGI [58]: 55.2 µM
